Columns and labels:
[1] = target: T1, Human M4 (Homo sapiens, UniProt P08173); assay: mAChR M4 cell-based functional assay (calcium flux, potentiation of EC20 acetylcholine response); set-up: Emax: dose or concentration left out as unconfirmed
T1 sequence (P08173 1-479): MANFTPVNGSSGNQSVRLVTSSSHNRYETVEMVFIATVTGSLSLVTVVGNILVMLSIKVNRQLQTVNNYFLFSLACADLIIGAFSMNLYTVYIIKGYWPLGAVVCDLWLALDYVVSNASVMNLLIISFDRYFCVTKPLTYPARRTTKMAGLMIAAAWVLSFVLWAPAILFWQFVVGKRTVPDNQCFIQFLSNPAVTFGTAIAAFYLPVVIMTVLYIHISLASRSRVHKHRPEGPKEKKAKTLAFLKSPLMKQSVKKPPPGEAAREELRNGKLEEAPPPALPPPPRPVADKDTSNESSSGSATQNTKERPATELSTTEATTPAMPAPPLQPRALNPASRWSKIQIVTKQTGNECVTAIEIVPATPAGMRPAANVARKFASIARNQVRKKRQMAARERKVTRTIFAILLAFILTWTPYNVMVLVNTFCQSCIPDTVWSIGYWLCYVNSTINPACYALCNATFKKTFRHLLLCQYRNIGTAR

[2] = patients treated with AChE inhibitor; cited from earlier work
[3] = Alzheimer's disease patients; cited from earlier work
[4] = similar profiles to known antipsychotic drugs, without causing catalepsy; cited from earlier work

Row | SMILES | EC50 [1] [nM] | Emax [1] [%] | patients with elevated liver transaminases [2] | effect on psychotic behavioral symptoms such as delusions, suspiciousness, vocal outbursts, and hallucinations [3] | activity in animal models [4]
1 | Cc1c(Cl)nnc2sc3c(N4CCCC4)nccc3c12 [Compound 35, 3-chloro-4-methyl-8-(pyrrolidin-1-yl)pyrido[4′,3′:4,5]thieno[2,3-c]pyridazine] | 25.4 | 101 |  |  | 
2 | COc1ccc(CNc2nccc3c2sc2nnc(Cl)c(C)c23)cc1F [Compound 36, 3-chloro-N-(3-fluoro-4-methoxybenzyl)-4-methylpyrido[4′,3′:4,5]thieno[2,3-c]pyridazin-8-amine] | 185 | 97.6 |  |  | 
3 | COc1ccc(CNc2nccc3c2sc2nnc(OC)c(C)c23)cc1 [Compound 37, 3-Methoxy-N-(4-methoxybenzyl)-4-methylpyrido[4′,3′:4,5]thieno[2,3-c]pyridazin-8-amine] | 562 | 76.4 |  |  | 
4 | COc1nnc2sc3c(NC4CN(c5ncc(C(F)(F)F)cn5)C4)nccc3c2c1C [Compound 38, 3-methoxy-4-methyl-N-(1-(5-(trifluoromethyl)pyrimidin-2-yl)azetidin-3-yl)pyrido[4′,3′:4,5]thieno[2,3-c]pyridazin-8-amine] | 280 | 80.6 |  |  | 
5 | COc1nnc2sc3c(NC4CCC4)nccc3c2c1C [Compound 39, N-cyclobutyl-3-methoxy-4-methylpyrido[4′,3′:4,5]thieno[2,3-c]pyridazin-8-amine] | 23.4 | 93.2 |  |  | 
6 | Cc1c(C(F)F)nnc2sc3c(N4CCCC4)nccc3c12 [Compound 40, 3-(Difluoromethyl)-4-methyl-8-(pyrrolidin-1-yl)pyrido[4′,3′:4,5]thieno[2,3-c]pyridazine] | 374 | 55.9 |  |  | 
7 | Cc1c(C(F)F)nnc2sc3c(N4CC5(COC5)C4)nccc3c12 [Compound 41, 6-(3-(difluoromethyl)-4-methylpyrido[4′,3′:4,5]thieno[2,3-c]pyridazin-8-yl)-2-oxa-6-azaspiro[3.3]heptane] | 1880 | 54.8 |  |  | 
8 | Cc1c(C(F)F)nnc2sc3c(N4CC(c5ccncc5)C4)nccc3c12 [Compound 42, 3-(difluoromethyl)-4-methyl-8-(3-(pyridin-4-yl)azetidin-1-yl)pyrido[4′3′:4,5]thieno[2,3-c]pyridazine] | 442 | 56.1 |  |  | 
9 | Nc1c2c(nc3ccccc13)CCCC2 [tacrine] |  |  | about 30% |  | 
10 | CCCCCCOc1nsnc1C1=CCCN(C)C1 [xanomeline] |  |  |  | reduce psychotic behavioral symptoms | active in animal models

— patent US10927126B2, “Positive allosteric modulators of the muscarinic acetylcholine receptor M4” (Vanderbilt University, priority 2016, dated 2021)
